Patent publication US4599334A, “7-(3-aryl-1-piperazinyl)- and 7-(3-cyclohexyl-1-piperazinyl)-3-quinolonecarboxylic acid antibacterials” (Bayer Aktiengesellschaft, priority 1984, dated 1986)
≈ marks a conversion by molar mass, not a printed value.

What was measured:
Assay type in all cases: cell-based
Details in all cases: agar dilution test/isosensitest agar, unit assumed
Staphylococcus 133 = experiment: MIC agar dilution test, Staphylococcus 133
Source text: (§1) It has already been disclosed in J. Med. Chem. 23, 1358 (1980) that 1-ethyl-6-fluoro-1,4-dihydro-4-oxo-7-(1-piperazinyl)-3-quinolinecarboxylicacid (norfloxacin) has antibacterial properties.
(§2) MIC values (agar dilution test/isosensitest agar)

Klebsiella 8085 = experiment: MIC agar dilution test, Klebsiella 8085
Source text: as §1, §2

Klebsiella 6179 = experiment: MIC agar dilution test, Klebsiella 6179
Source text: as §1, §2

E. coli Neumann = experiment: MIC agar dilution test, E. coli Neumann
Source text: as §1, §2

Serratia 16040 = experiment: MIC agar dilution test, Serratia 16040
Source text: as §1, §2

Providencia 12052 = experiment: MIC agar dilution test, Providencia 12052
Source text: as §1, §2

Staphylococcus FK 422 = experiment: MIC agar dilution test, Staphylococcus FK 422
Source text: as §1, §2

Klebsiella 57 USA = experiment: MIC agar dilution test, Klebsiella 57 USA
Source text: as §1, §2

Staphylococcus 1756 = experiment: MIC agar dilution test, Staphylococcus 1756
Source text: as §1, §2

Row | Compound | MIC values (Staphylococcus 133) [µg/mL] | MIC values (Klebsiella 8085) [µg/mL] | MIC values (Klebsiella 6179) [µg/mL] | MIC values (E. coli Neumann) [µg/mL] | MIC values (Serratia 16040) [µg/mL] | MIC values (Providencia 12052) [µg/mL] | MIC values (Staphylococcus FK 422) [µg/mL] | MIC values (Klebsiella 57 USA) [µg/mL] | MIC values (Staphylococcus 1756) [µg/mL]
1 | O=C(O)c1cn(C2CC2)c2cc(N3CCNC(c4ccc(N5CCCCC5)cc4)C3)c(F)cc2c1=O (stereo not drawn) [Example 8] | 0.03 (≈ 0.0612 µM) | – | – | – | – | – | 0.015 (≈ 0.0306 µM) | – | 0.015 (≈ 0.0306 µM)
2 | Br.O=C(O)c1cn(C2CC2)c2cc(N3CCNC(c4ccc(O)cc4)C3)c(F)cc2c1=O (stereo not drawn) [Example 14, 1-cyclopropyl-6-fluoro-1,4-dihydro-7-[3-(4-hydroxyphenyl)-1-piperazinyl]-4-oxo-3-quinolinecarboxylic acid hydrobromide] | 0.125 | 0.03 | 0.25 | 0.015 | 8 | 32 | 0.125 | 0.125 | 0.5
3 | O=C(O)c1cn(C2CC2)c2cc(N3CCNC(c4ccc(F)cc4)C3)c(F)cc2c1=O (stereo not drawn) [Example 2] | 0.06 (≈ 0.141 µM) | 0.015 (≈ 0.0353 µM) | 0.06 (≈ 0.141 µM) | 0.015 (≈ 0.0353 µM) | 16 (≈ 37.6 µM) | 8 (≈ 18.8 µM) | 0.03 (≈ 0.0705 µM) | 0.25 (≈ 0.588 µM) | 0.03 (≈ 0.0705 µM)
4 | COc1ccc(C2CN(c3cc4c(cc3F)c(=O)c(C(=O)O)cn4C3CC3)CCN2)cc1 (stereo not drawn) [Example 5] | 0.06 (≈ 0.137 µM) | 0.03 (≈ 0.0686 µM) | 0.125 (≈ 0.286 µM) | 0.03 (≈ 0.0686 µM) | 16 (≈ 36.6 µM) | 8 (≈ 18.3 µM) | 0.06 (≈ 0.137 µM) | 0.5 (≈ 1.14 µM) | 0.03 (≈ 0.0686 µM)
5 | O=C(O)c1cn(C2CC2)c2c(F)c(N3CCNC(c4ccccc4)C3)c(F)cc2c1=O (stereo not drawn) [Example 16, 1-cyclopropyl-6,8-difluoro-1,4-dihydro-4-oxo-7-(3-phenyl-1-piperazinyl)-3-quinolinecarboxylic acid] | 0.015 (≈ 0.0353 µM) | 0.015 (≈ 0.0353 µM) | 0.015 (≈ 0.0353 µM) | 0.015 (≈ 0.0353 µM) | 2 (≈ 4.7 µM) | 4 (≈ 9.4 µM) | 0.015 (≈ 0.0353 µM) | 0.125 (≈ 0.294 µM) | 0.015 (≈ 0.0353 µM)
6 | O=C(O)c1cn(C2CC2)c2cc(N3CCNC(c4ccc(Cl)cc4)C3)c(F)cc2c1=O (stereo not drawn) [Example 3] | 0.06 (≈ 0.136 µM) | 0.03 (≈ 0.0679 µM) | 0.125 (≈ 0.283 µM) | 0.03 (≈ 0.0679 µM) | 16 (≈ 36.2 µM) | 8 (≈ 18.1 µM) | 0.06 (≈ 0.136 µM) | 0.5 (≈ 1.13 µM) | 0.06 (≈ 0.136 µM)

Second part, the compound after the results:

Row | MIC values (Staphylococcus 133) [µg/mL] | MIC values (Klebsiella 8085) [µg/mL] | MIC values (Klebsiella 6179) [µg/mL] | MIC values (E. coli Neumann) [µg/mL] | MIC values (Serratia 16040) [µg/mL] | MIC values (Providencia 12052) [µg/mL] | MIC values (Staphylococcus FK 422) [µg/mL] | MIC values (Klebsiella 57 USA) [µg/mL] | MIC values (Staphylococcus 1756) [µg/mL] | Compound
7 | 0.015 (≈ 0.0368 µM) | 0.015 (≈ 0.0368 µM) | 0.015 (≈ 0.0368 µM) | 0.015 (≈ 0.0368 µM) | 8 (≈ 19.6 µM) | 4 (≈ 9.82 µM) | 0.015 (≈ 0.0368 µM) | 0.06 (≈ 0.147 µM) | 0.015 (≈ 0.0368 µM) | O=C(O)c1cn(C2CC2)c2cc(N3CCNC(c4ccccc4)C3)c(F)cc2c1=O (stereo not drawn) [Example 1, 1-cyclopropyl-6-fluoro-1,4-dihydro-4-oxo-7-(3-phenyl-1-piperazinyl)-3-quinolinecarboxylic acid]
8 | 1 (≈ 3.13 µM) | 0.25 (≈ 0.783 µM) | 1 (≈ 3.13 µM) | 0.125 (≈ 0.391 µM) | 32 (≈ 100 µM) | 128 (≈ 401 µM) | 2 (≈ 6.26 µM) | 1 (≈ 3.13 µM) | 1 (≈ 3.13 µM) | CCn1cc(C(=O)O)c(=O)c2cc(F)c(N3CCNCC3)cc21 [Norfloxacin, 1-ethyl-6-fluoro-1,4-dihydro-4-oxo-7-(1-piperazinyl)-3-quinolinecarboxylicacid, reference compound]
9 | 0.03 (≈ 0.0726 µM) | 0.015 (≈ 0.0363 µM) | 0.125 (≈ 0.302 µM) | 0.015 (≈ 0.0363 µM) | 16 (≈ 38.7 µM) | 8 (≈ 19.3 µM) | 0.06 (≈ 0.145 µM) | 0.5 (≈ 1.21 µM) | 0.03 (≈ 0.0726 µM) | O=C(O)c1cn(C2CC2)c2cc(N3CCNC(c4cccs4)C3)c(F)cc2c1=O (stereo not drawn) [Example 12]
10 | 0.06 (≈ 0.133 µM) | – | – | – | – | – | 0.125 (≈ 0.276 µM) | – | 0.06 (≈ 0.133 µM) | O=C(O)c1cn(C2CC2)c2cc(N3CCNC(c4cccc([N+](=O)[O-])c4)C3)c(F)cc2c1=O (stereo not drawn) [Example 11]
